Converted amounts (≈) assume the structure as drawn. “And” between values parts separate entries of the source, which are not always exact repeats. Equal values may be shown once. Read-outs that look alike come from different tables or passages of the source.

What is called IC50 is the concentration that gives 50% inhibition. By Ki is commonly meant a dissociation constant, usually derived from enzyme kinetics or from competition with a known ligand.

Assay [1] in a line: ABTS radical scavenging assay. Conditions: for IC50: Table 3, molar units; for IC50 ABTS Assay: mean ± SEM of triplicate. The protocol: A method reported by Zheleva-Dimitrova et al. was adopted with slight modifications. Stock solutions of ABTS (7 mM) and potassium persulphate (2.45 mM) were prepared using distilled water. The working solution was prepared by adding 1 mL of ABTS solution to same amount of potassium persulphate solution. The reaction mixture was left overnight for 16 h to generate the intensely blue coloured ABTS^•+. 1 mL of ABTS^•+ was then added to 50 mL of MeOH and distributed (100 µL each) into a 96 microplate well containing 100 µL of serially diluted sample/ standard (7.81–125 µg/mL). Absorbance was measured at 734 nm against blank (containing sample and MeOH only). Test was conducted in triplicate. Samples were compared with trolox and ascorbic acid and percentage inhibition was calculated as follows:(2) (% ABTS inhibition)= [Ac−As/Ac] ×100 where, Ac = absorbance of ABTS^• in MeOH, As = absorbance ABTS^•+ in sample/standard.
The radical scavenging activity was determined from the IC50 values obtained from the percentage inhibition curve against different concentrations of the sample/standard.

A short description of assay [2]: DPPH radical scavenging assay. Conditions: for IC50: Table 3, molar units; for IC50 DPPH Assay: mean ± SEM of triplicate. The protocol: Modified methods from Sulaiman et al. and Ahmed et al. were used. Briefly, 150 µL of freshly prepared DPPH^• solution (0.4 M concentration) was carefully introduced into 96 round microplate wells each. 100 µL of sample/ standard (7.81–500 µg/mL) were added. Blanks contained only methanol and DPPH^•. Ascorbic acid (dissolved in distilled water) and quercetin (dissolved in MeOH) were used as standard. The plate was left in the dark for 25 min to activate. […] Tests were conducted in triplicate and the percentage inhibition of each sample/standard was calculated using the following equation:(1) (% DPPH inhibition)= [Ac−As/Ac] ×100 where, Ac = absorbance of DPPH radical in MeOH, As = absorbance of DPPH radical in sample or standard. IC50 values obtained from graphical plot from percentage inhibition against concentration were used to define the radial scavenging activity of each sample.
(In general: Loss of DPPH colour is used to gauge radical scavenging.)

Assay [3] in a line: Dot-blot staining assay, DPPH reagent. Conditions: 1 mg/mL, compared to ascorbic acid positive control. The protocol: (§1) Rapid detection of the free radical scavenging activity of isolated compounds from active fractions of E. spiralis methanol extract was carried out using a method adapted from Sarian et al.. Three detection agents viz., DPPH^•, ABTS^•+ and β-carotene were used. Briefly, few drops of each compound were spotted on a TLC plate (1.5 × 8 cm) using capillary tube and dried for few minutes at room temperature. The plate was then carefully dipped in 0.5% DPPH^• in methanol for few seconds. The plate was allowed to dry and the colour change was observed. Yellow spots on a purple background indicate radical scavenging activity and intensity of the yellow colour is proportional to the antioxidant activity. A TLC-β-carotene assay was also conducted using 0.05% of β-carotene in chloroform. A few drops of each sample (1 mg/mL) was spotted on TLC plate an allowed to dry after which it was dipped into β-carotene solution for 20 s. The plate was dried completely under direct sunlight for 3 h. Yellow or orange spot on a white background indicates activity. The intensity of the colour is dependent on the extent of antioxidant activity of the compound. TLC ABTS^•+ test was performed by mixing 2.45 mM of potassium persulphate with 7 mM of ABTS and kept in the dark for 16 hours to generate ABTS^•+. Already spotted TLC plates were then dipped into it for 10 s and allowed to dry at room temperature. White or orange spots on a bluish green background indicates activity.

The nature of assay [4]: Dot-blot staining assay, β-carotene. Conditions: 1 mg/mL, compared to ascorbic acid positive control. The protocol: as §1
The nature of assay [5]: Dot-blot staining assay, ABTS reagent. Conditions: 1 mg/mL, compared to ascorbic acid positive control. The protocol:
as §1

A further assay has as its target T1, α-amylase (Sus scrofa, UniProt P00690).
T1 sequence (P00690 16-511): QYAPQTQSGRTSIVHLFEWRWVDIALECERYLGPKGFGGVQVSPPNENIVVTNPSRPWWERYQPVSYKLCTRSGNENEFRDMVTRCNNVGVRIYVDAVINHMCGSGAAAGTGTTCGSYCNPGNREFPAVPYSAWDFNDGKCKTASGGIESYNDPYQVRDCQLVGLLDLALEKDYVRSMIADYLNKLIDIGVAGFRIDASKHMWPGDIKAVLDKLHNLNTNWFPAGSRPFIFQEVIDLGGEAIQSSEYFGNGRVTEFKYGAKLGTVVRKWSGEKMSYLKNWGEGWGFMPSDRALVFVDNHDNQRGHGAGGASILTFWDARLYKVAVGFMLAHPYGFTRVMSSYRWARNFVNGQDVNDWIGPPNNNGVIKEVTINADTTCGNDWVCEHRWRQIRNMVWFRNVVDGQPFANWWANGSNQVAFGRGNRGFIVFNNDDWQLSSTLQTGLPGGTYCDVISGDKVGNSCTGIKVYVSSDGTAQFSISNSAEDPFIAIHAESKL
Description: In vitro α-amylase inhibitory assay (starch-iodine method). Conditions: mean ± SEM of triplicate. The class given is biochemical. The protocol:
The procedure proposed by Johnson et al. was adopted and modified for a microplate-based method carried out by Xiao et al.. Briefly, 25 µL of α-amylase solution (1 U/mL in 0.2 M phosphate buffer at pH 7) was introduced into 96 well flat bottom microplates followed by addition of 25 µL of serially diluted sample/standard (7.8–1000 µg/mL) and incubated for 5 min at 37 °C followed by 25 µL of 1% starch in buffer (boiled for 15 min) and re-incubated for 45 min at 50 °C. Next was the addition of 100 µL of 1% iodine solution and 50 µL of distilled water. The microplate was tightly covered during incubation to prevent evaporative loss. […] All determinations including sample, control, and blank were conducted in triplicate under the same reaction conditions. […] Inhibitory activity was determined using the following equation:(3) (% enzyme inhibition)= 1−[Abs/Contr] ×100 where, Abs is the absorbance of the sample or standard. Contr is the absorbance of the control without enzyme.

For assay [6], the target named is α-glucosidase (Saccharomyces cerevisiae, UniProt P53341). Description: In vitro α-glucosidase inhibitory assay (pNPG substrate). The class given is biochemical. Here is the method: This assay used a method adapted from Johnson et al. with slight modifications employing α-glucosidase (enzyme) obtained from Saccharomyces cerevisiae (1 U/mL) dissolved in 50 mM phosphate buffer (pH 6.9). 100 µL of enzyme (in 0.1M phosphate buffer) was added into 96 microplate well containing 50 µL of sample/ standard 7.8–1000 µg/mL and incubated at 37 °C for 10 min. Next was the addition of 50 µL of the substrate, p-nitrophenyl glucopyranoside (5 mM in 0.1 phosphate buffer at pH 6.9) and re-incubated for 5 min at 37 °C. The reaction was terminated by the addition of 100 µL of 0.1 M Na2CO3 and absorbance was measured at 405 nm.
Sequence of α-glucosidase (Saccharomyces cerevisiae, UniProt P53341) (P53341 whole entry): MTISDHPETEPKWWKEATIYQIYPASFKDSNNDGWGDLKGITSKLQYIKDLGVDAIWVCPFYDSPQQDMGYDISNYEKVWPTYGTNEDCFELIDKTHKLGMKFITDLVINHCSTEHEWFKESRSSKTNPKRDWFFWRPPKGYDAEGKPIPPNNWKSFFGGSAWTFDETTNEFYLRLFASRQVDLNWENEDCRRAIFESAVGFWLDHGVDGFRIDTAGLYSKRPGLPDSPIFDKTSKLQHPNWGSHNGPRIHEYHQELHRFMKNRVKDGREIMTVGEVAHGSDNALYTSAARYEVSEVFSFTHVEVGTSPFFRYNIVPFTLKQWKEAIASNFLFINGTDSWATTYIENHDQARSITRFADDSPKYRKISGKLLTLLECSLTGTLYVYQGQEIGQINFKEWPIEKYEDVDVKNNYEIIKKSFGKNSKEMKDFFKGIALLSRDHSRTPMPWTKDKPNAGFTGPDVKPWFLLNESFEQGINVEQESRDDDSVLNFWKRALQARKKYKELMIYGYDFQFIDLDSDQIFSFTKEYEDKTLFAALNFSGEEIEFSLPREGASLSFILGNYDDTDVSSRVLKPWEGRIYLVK
Experiments were conducted in triplicate.

In assay [7] the target is α-glucosidase. Further details: method as in doi:10.1016/j.foodres.2014.01.029. Conditions: isolated from Rhodiola crenulata root; cited from earlier work.
A further assay has as its target human pancreatic amylase. Conditions: cited from earlier work.
Where [8] appears, read: Table 3, molar units, read-out: IC50 α-Glucosidase (converted).
[9] abbreviates: mean ± SEM of triplicate, read-out: IC50 α-Glucosidase (converted).

Take `O=C1O[C@H]([C@@H](O)CO)C(O)=C1O` [Ac, ascorbic acid, reference compound]: in assay [1], the IC50 was found to be 95 µM and the “IC50 ABTS Assay” value is 16.74± 1.76 ^A µg/mL. Moreover, in assay [2], the IC50 was 140 µM and the “IC50 DPPH Assay” value is listed as 24.67 ± 0.45 ^A µg/mL. In addition, the “IC50 DPPH Assay” value in [2] (listed as ascorbic acid) is listed as 5.38 ± 1.26 µg/mL (≈ 30.5 µM).

Take `CCCCCCOC(=O)/C=C/c1ccc(O)c(OC)c1` [FEQ-2, (E)-hexyl 3-(4-hydroxy-3-methoxyphenyl) acrylate]: in assay [3], the “Dot-blot spot intensity, DPPH” value is “strong intensity”. Besides, the IC50 in assay [1] is 10 µM; in [2] it was 50 µM; at α-glucosidase [6] (setting [8]) it was 530 µM; at α-glucosidase [6] (setting [9]) it was 535 µM. In addition, in [1], the “IC50 ABTS Assay” value is 4.69 ± 1.25 µg/mL (≈ 16.8 µM). Moreover, the “Dot-blot spot intensity, β-carotene” value in [4] is listed as “strong intensity”. In [5], the “Dot-blot spot intensity, ABTS” value is “strong intensity”. Moreover, the “IC50 α-Amylase” value against α-amylase was “did not show any observable α-amylase inhibition”. Besides, the “IC50 DPPH Assay” value in [2] is on record as 13.79 ± 2.13 µg/mL (≈ 49.5 µM).

Regarding `O=c1c(O)c(-c2ccc(O)cc2)oc2cc(O)cc(O)c12` [FEQ-3, kaempferol], the “Dot-blot spot intensity, DPPH” value in assay [3] was “strong intensity”. In [1], the IC50 is 7 µM and the “IC50 ABTS Assay” value amounted to 2.10 ± 0.51 µg/mL (≈ 7.34 µM). Besides, in assay [4], the “Dot-blot spot intensity, β-carotene” value was “strong intensity”. Also, in assay [5], the “Dot-blot spot intensity, ABTS” value is listed as “strong intensity”. Moreover, in [2], it took 39 µM to reach half-maximal inhibition (IC50) and the “IC50 DPPH Assay” value came out at 11.29 ± 0.26 µg/mL (≈ 39.4 µM).

In the case of `COc1cc(O)c2c(=O)c(OC)c(-c3ccc(O)c(OC)c3)oc2c1` [FEQ-4, pachypodol], the “Dot-blot spot intensity, DPPH” value in assay [3] is reported as “low intensity”. Also, the IC50 in [1] was 100 µM; in assay [2], 190 µM; at α-glucosidase [6] (setting [8]) it was 220 µM; on α-glucosidase [6] (setting [9]) it was 219 µM. Besides, the “Dot-blot spot intensity, β-carotene” value in assay [4] is on record as “low intensity”. In addition, in assay [5], the “Dot-blot spot intensity, ABTS” value was “strong intensity”. In addition, in [2], the “IC50 DPPH Assay” value was found to be 66.17 ± 8.03 µg/mL (≈ 192 µM).

Regarding `O=C(O)c1cc(O)c(O)c(O)c1` [FEQ-5, gallic acid], the “Dot-blot spot intensity, DPPH” value in assay [3] is given as “strong intensity”. Further, the IC50 in [1] is 7.5 µM; in assay [2], 36 µM; against α-glucosidase [6] (IC50 α-Glucosidase, Table 3, molar units), 38 µM; against α-glucosidase [6] (IC50 α-Glucosidase, mean ± SEM of triplicate) it was 38.1 µM. Moreover, the “IC50 ABTS Assay” value in assay [1] is on record as 1.28 ± 0.89 µg/mL (≈ 7.52 µM). Further, in [4], the “Dot-blot spot intensity, β-carotene” value is “strong intensity”. Besides, the “Dot-blot spot intensity, ABTS” value in [5] is given as “strong intensity”. In addition, the “IC50 DPPH Assay” value in assay [2] is given as 6.15 ± 0.38 µg/mL (≈ 36.2 µM).

In the case of `Oc1cc(O)c2c(c1)O[C@H](c1ccc(O)c(O)c1)[C@@H](O)C2` [FEQ-7, (+)-catechin], the “Dot-blot spot intensity, DPPH” value in assay [3] is on record as “strong intensity”. Further, in assay [1], the IC50 came out at 6.4 µM and the “IC50 ABTS Assay” value was 1.86 ± 0.15 µg/mL (≈ 6.41 µM). In addition, the “Dot-blot spot intensity, β-carotene” value in [4] is listed as “strong intensity”. Moreover, the “Dot-blot spot intensity, ABTS” value in assay [5] is reported as “strong intensity”. Further, the “IC50 α-Amylase” value against α-amylase is reported as “did not show any observable α-amylase inhibition”. In addition, in assay [2], the IC50 came to 43 µM and the “IC50 DPPH Assay” value was 12.48 ± 1.55 µg/mL (≈ 43 µM). Further, on α-glucosidase [6] (read-out: IC50 α-Glucosidase (converted)), the IC50 is 351 µM and 350 µM.

On to `Oc1cc(O)c2c(c1)O[C@H](c1ccc(O)c(O)c1)[C@H](O)C2` [FEQ-8, (−)-epicatechin], for which the IC50 was 29.9 ± 2.2 µM on α-glucosidase [7]; 3.9 µM in assay [1]; 40 µM in assay [2]; 340 µM at α-glucosidase [6] (setting [8]); 341 µM at α-glucosidase [6] (setting [9]). For the same compound, in assay [3], the “Dot-blot spot intensity, DPPH” value was “strong intensity”. In addition, in [1], the “IC50 ABTS Assay” value is reported as 1.12 ± 0.09 µg/mL (≈ 3.86 µM). In addition, in assay [4], the “Dot-blot spot intensity, β-carotene” value is given as “strong intensity”. In addition, the “Dot-blot spot intensity, ABTS” value in [5] is “strong intensity”. In addition, on α-amylase, the “IC50 α-Amylase” value is “did not show any observable α-amylase inhibition”.

As to `O=c1c(O)c(-c2ccc(O)c(O)c2)oc2cc(O)cc(O)c12` [Qc, quercetin, reference compound], in assay [2], inhibition was half-maximal at 99 µM (IC50) and the “IC50 DPPH Assay” value is 29.82 ± 3.73 ^A µg/mL.

Take `Cc1c(C)c2c(c(C)c1O)CCC(C)(C(=O)O)O2` (stereo not drawn) [Tx, 6-hydroxy-2,5,7,8-tetramethylchroman-2-carboxylic acid, reference compound]: in assay [1], the IC50 amounted to 61 µM and the “IC50 ABTS Assay” value is listed as 15.23 ± 2.15 ^A µg/mL.

Regarding montbretin A, the Ki on human pancreatic amylase is 0.008 µM.

(Values after PMC6471705, “Evaluation of the Enzyme Inhibitory and Antioxidant Activities of Entada spiralis Stem Bark and Isolation of the Active Constituents” (Molecules, 2019).)
